The source of these data is PMC8456950, “Structure‐Guided Design of G‐Protein‐Coupled Receptor Polypharmacology” (Angewandte Chemie (International Ed. in English), 2021).

Experiment [1] has as its target T1, Human A1AR (Homo sapiens, UniProt P30542).
T1 construct: expressed in transfected cells; host or cells: CHO-A1AR cell line (membranes)
T1 sequence (P30542 1-326): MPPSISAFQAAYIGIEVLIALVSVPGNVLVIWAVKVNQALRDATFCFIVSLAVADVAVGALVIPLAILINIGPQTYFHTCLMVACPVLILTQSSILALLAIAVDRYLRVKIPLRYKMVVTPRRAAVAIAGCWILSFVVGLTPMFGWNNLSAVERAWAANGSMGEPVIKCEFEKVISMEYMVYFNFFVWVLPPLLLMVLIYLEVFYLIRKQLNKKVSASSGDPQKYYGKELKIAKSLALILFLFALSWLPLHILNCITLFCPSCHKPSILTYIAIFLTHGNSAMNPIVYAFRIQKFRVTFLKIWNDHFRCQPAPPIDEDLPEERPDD
As to the kind of experiment: A1AR competition binding ([3H]-DPCPX). To be noted: for A1AR % displacement at 10 µM: 10 µM compound, n=2. The method, then: Human A1AR competition binding experiments were carried out in multiscreen GF/C 96 -well plates (Millipore, Madrid, Spain) pretreated with assay buffer ( 20 mM Hepes, 100 mM NaCl, 10 mM MgCl2, 2 U/ml adeno sine deamina se, pH=7.4). Each well contained 5 µg of membranes from a CHO-A1AR cell line, 1 nM [3H]-DPCPX (137 Ci/mmol, 1 mCi/Ml, Perkin Elmer NET974001MC), and the compound studied. Non-specific binding was determined in the presence of R-PIA 10 µM (Sigma P4532). The reaction mixture (200 µl/well) was incubated at 25°C for 60 min. The samples were then filtered and washed four times with 250 µl wash buffer (20 mM Hepes, 100 mM NaCl, 10 mM MgCl2, pH=7.4) before measuring in a microplate beta scintillati on counter (Microbeta Trilux, PerkinElmer, Madrid, Spain). Two independent experiments were carried out to calculate K i values (n=2). […]

For experiment [2], the target named is T2, Human D2R (Homo sapiens, UniProt P14416).
T2 construct: expressed in transfected cells; host or cells: CHO-D2R #S20 cell line (membranes)
Nature of the experiment: D2R functional cAMP (HTRF) assay in CHO-D2 #S20 cells. The class given is cell-based. To be noted: for EC50: cAMP HTRF, CHO-D2 cells, forskolin 10 µM, mean±SEM n=3; for Emax: relative to the maximal effect of dopamine. As for the experimental part: KB=I C50/(1+([NECA]/EC50 NECA)).
Functional assays for the human D2R were carried out in a CHO-D2 #S20 cell line. 5,000 cells were seed ed in 30 µl of Opti-ME M (Invitrogen 11058) and 500µM IBMX (Sigma 17018) on a 96-well isoplate (PerkinElmer 6005030). The studied compounds wer e then added and incubated for 10 min at 37 °C with gentle stirring (150 rpm). Then, 10 µM […]
forskolin (Sigma 17018) was added and incubated for 5 min at 37 °C with gentle stirring (150 rpm). Reagents (#CISBIO 62AM4PEC) were added and, after incubation for 60 min at rt with gentle stirring (90 rpm) and protected from light, homogeneous time resolved fluorescence (HTRF, λEx: 320 nm; λEm: 620-665 nm) from each well was measured using a Tecan Infinite M1000 Pro. Data were normalized to the maximum effect of dopamine. EC50 and Ema x values were obtained after fitting the d ata to a four -parameter logistic equatio n using Prism V2. 1 (Graph Pad Inc, Chicago, USA) . […]

In experiment [3] the target is Human A2AAR (Homo sapiens, UniProt P29274). Nature of the experiment: A2AAR functional assay, inhibition of NECA-elicited cAMP production in CHO-A2A cells. The class given is cell-based. To be noted: mean±SEM n=3. Further details: expressed in transfected cells. The method, then:
Functional assays. For the human A2AAR, functional experiments measuring cAMP production were carried out in CHO-A2A cell line. The day before the assay, the cells were seeded on a 96-well culture plate (Falcon 353072). The cells were washed with wash buffer (Dulbecco’s modified eagle’s medium nutrient mixture F-12 ham (Sigma D8062), 25 mM Hepes; pH=7.4). Wash buffer was then replaced by incubation buffer (Dulbecco’s modified eagle’s medium nutrient mixture F-12 ham (Sigma D8062), 25 mM Hepes, 20 µM Rolipram, pH=7.4). The studied compounds wer e added and incubated at 37 °C for 15 min. After incubation, NECA (Sigma E2387) was added in several concentrations and incubated at 37 °C for 15 min. After incubation, the amount of cAMP was determined using the cAMP Biotrak Enzymeimmunoassay (EIA) System Kit (GE Healthcare RPN225). Data were adjusted to non-linear fitting by using Prism V2.1 (GraphPad Inc, Chicago USA). K B values were calculated from the IC50 values obtained for each compound by using the formula:
KB=I C50/(1+([NECA]/EC50 NECA)). […]
Background: Changes in cAMP serve as a functional read-out for many G protein-coupled receptors.

In experiment [4] the target is T3, D4R (Homo sapiens, UniProt P21917, DEL265-296).
T3 sequence (P21917 with tags, fused parts or gaps DEL265-296): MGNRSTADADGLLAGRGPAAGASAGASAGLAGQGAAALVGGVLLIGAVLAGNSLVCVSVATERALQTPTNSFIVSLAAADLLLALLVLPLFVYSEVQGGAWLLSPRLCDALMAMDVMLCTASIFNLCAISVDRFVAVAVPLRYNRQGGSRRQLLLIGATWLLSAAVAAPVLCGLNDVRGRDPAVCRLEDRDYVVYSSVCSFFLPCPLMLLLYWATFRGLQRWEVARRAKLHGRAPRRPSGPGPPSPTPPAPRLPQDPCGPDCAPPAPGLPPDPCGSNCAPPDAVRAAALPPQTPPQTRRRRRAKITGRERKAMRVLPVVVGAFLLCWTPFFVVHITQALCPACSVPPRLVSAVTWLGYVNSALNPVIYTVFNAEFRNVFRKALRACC
Nature of the experiment: D4R competition binding ([3H]-spiperone). To be noted: for Ki: mean±SEM of two experiments in duplicate, read-out: D4R binding affinity Ki; for inhibition at 10 µM: 2 h, 10 µM compound, n=2, read-out: D4R % displacement at 10 µM. The method, then: D4R competition binding experiments were carried out in polypropylene 96 -well plate s. Each well contained 35 µg of membranes from a CHO-D4R cell line (Perkin Elmer, RBHD42M400U A, protein concentration=14000 µg/ml), 1 nM [3H]-spiperone (68 Ci/mmol, 1 mCi/ml, Perkin Elmer NET1187001MC), and the compound studied. Non-specific binding was determined in the presence of 25 µM haloperidol (Sigma H1512). The reaction mixture (250 µl/well) was incubated at 27 °C for 120 min, after which 200 µL was transferred to GF/C 96-well plates (Millipore, Madrid, Spain) pretreated with 0.5% PEI and treated with binding buffer (50 mM Tris-HCl, 1 mM EDTA, 5 mM MgCl2, 5 mM KCl, 120 mM NaCl, pH=7.4). The samples were filtered and washed f our times with 250 µl wash buffer (50 mM Tris-HCl, 0.9% NaCl, pH=7.4) before measuring in a microplate beta scintillation counter (Microbeta Trilux, PerkinElmer, Madrid, Spain). Two independent experiments were carried out to calculate Ki values (n=2). […]

Structures are written as SMILES.

Sequence of Human A2AAR (P29274 whole entry): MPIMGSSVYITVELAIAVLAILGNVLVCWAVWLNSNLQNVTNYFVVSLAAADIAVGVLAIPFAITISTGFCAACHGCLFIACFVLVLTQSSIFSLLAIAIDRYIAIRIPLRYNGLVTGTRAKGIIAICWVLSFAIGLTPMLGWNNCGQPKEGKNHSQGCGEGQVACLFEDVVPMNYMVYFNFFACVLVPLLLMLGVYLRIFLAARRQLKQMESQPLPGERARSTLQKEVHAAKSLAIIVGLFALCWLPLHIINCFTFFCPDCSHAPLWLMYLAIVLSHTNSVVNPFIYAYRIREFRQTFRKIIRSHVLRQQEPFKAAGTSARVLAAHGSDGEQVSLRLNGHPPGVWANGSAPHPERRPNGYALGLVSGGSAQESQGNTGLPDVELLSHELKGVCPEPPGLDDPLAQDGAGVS
T2 sequence (P14416 whole entry): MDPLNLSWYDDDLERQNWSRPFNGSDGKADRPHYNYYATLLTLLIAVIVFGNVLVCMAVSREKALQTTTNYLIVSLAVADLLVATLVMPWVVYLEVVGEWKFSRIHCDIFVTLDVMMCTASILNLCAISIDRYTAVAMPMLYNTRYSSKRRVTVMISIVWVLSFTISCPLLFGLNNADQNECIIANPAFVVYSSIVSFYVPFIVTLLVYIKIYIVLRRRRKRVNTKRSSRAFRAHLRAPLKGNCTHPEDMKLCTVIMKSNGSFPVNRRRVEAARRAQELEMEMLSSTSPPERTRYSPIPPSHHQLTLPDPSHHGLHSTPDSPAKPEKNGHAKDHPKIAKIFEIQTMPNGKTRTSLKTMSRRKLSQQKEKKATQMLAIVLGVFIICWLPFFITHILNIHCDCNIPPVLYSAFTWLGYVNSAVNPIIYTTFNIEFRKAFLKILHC

What is called EC50 is the concentration at which the effect is half-maximal. A low value points to greater potency. One may read the Emax as the maximal effect, on the per cent scale that the assay sets. Usually Ki stands for a measure of affinity in units of concentration, obtained from inhibition or displacement. For the compound `CCCN(CCCCC(=O)Nc1nc2c(OC)cccc2s1)C1Cc2ccccc2C1` [Compound 26], the “A1AR % displacement at 10 µM” value in experiment [1] came to 22 ± 1%. Moreover, in experiment [2], the half-maximal effective concentration (EC50) is 990 ± 380 nM and the Emax was found to be 94 ± 3%. Moreover, in experiment [3], the Kb stood at 3600 ± 2000 nM. Also, in experiment [4], the Ki was 700 ± 80 nM.
Turning to `CCCN(CCCCC(=O)Nc1nc2c(Br)cccc2s1)C1Cc2ccccc2C1` [Compound 27], in experiment [1], the “A1AR % displacement at 10 µM” value turned out to be 37 ± 4%. In experiment [2], the EC50 was found to be 180 ± 30 nM and the Emax turned out to be 89 ± 4%. For the same compound, the Kb in experiment [3] was found to be 510 ± 240 nM. The inhibition at 10 µM in experiment [4] amounted to 27 ± 4%.
For `CCCN(CCCCC(=O)Nc1nc2c(OC)ccc(OC)c2s1)C1Cc2ccccc2C1` [Compound 30], the “A1AR % displacement at 10 µM” value in experiment [1] was determined as 35 ± 1%. Moreover, the Ki in experiment [1] (mean±SEM of two experiments in duplicate, read-out: A1AR binding affinity Ki) was more than 10000 nM. In experiment [2], this compound yielded an EC50 of 180 ± 40 nM and an Emax of 77 ± 5%. In experiment [3], this compound came in with a Kb of 720 ± 250 nM. In experiment [4], the inhibition at 10 µM worked out at 19 ± 4% and the Ki was more than 10000 nM.
In experiment [2], `CCN(CCCCC(=O)Nc1nc2c(Br)cccc2s1)C1Cc2ccccc2C1` [Compound 22] registered an EC50 of 2500 ± 900 nM and a maximal effect (Emax) of 119 ± 6%. In addition, in experiment [4], the inhibition at 10 µM turned out to be 19 ± 1%.
